In patent US12187816B2, “Macrocyclic compounds and methods of use thereof” (Genentech, Inc., priority 2020, dated 2025):
Starred links: 1 amine or outer side, 2 acyl side, 3 side chain; linkers in the order of their positions; H or OH if unused. Positions of bridges follow the written chain, without caps; N, C: chain ends. Non-standard residues stand in square brackets, D forms with d. Residues, ends and D or L forms follow the SMILES beside them. *: point of attachment. X14 = Cn1cc2c3c(c[nH]c3c1=O)CN(c1ncc(F)cc1F)c1cc(C(=O)*)c(CS(C)(=O)=O)cc1-2; X11 = CC(=O)N1c2ccc(-c3ccc(C(=O)*)cc3)cc2[C@H](Nc2ccc(Cl)cc2)C[C@@H]1C; JQ1acid = Cc1sc2c(c1C)C(c1ccc(Cl)cc1)=N[C@@H](CC(=O)*)c1nnc(C)n1-2; dPhg(4-(4-Me-thiazol-5-yl)) = Cc1ncsc1-c1ccc([C@@H](N)C(=O)O)cc1; Phg(4-(4-Me-thiazol-5-yl)) = Cc1ncsc1-c1ccc([C@H](N)C(=O)O)cc1; dDap(Me) = CN(C[C@@H](N[*:1])C(=O)[*:2])[*:3]; Bip = N[C@@H](Cc1ccc(-c2ccccc2)cc1)C(=O)O; X5 = O=C([C@@H](Cc1ccc(Br)s1)N[*:1])[*:2]; X7 = O=C([C@H](Cc1ccc(Br)s1)N[*:1])[*:2]; X4 = O=C([C@H]1CN([*:3])CCN1[*:1])[*:2]; cisHyp = O=C(O)[C@@H]1C[C@H](O)CN1; Hyp = O=C(O)[C@@H]1C[C@@H](O)CN1; d(β3hK) = NCCCC[C@@H](N)CC(=O)O; Tle = CC(C)(C)[C@H](N)C(=O)O; dDap = NC[C@@H](N)C(=O)O; PEG1 = NCCOCCC(=O)O; AEA = NCCOCC(=O)O

These molecules were tested against T1, BRD4 (Homo sapiens, UniProt O60885) (assay: BRD4 degradation assay in EOL1 cells (immunofluorescence imaging)). Settings: EoL-1 eosinophilic leukemia cells, 4 hours treatment, nuclear BRD4 immunofluorescence.
T1 construct: Mean 488 intensity of BRD4 quantitated in nuclear region; endogenous in cells; host or cells: EoL-1 eosinophilic leukemia cells
Format: cell-based
Procedure: BRD4 Degradation Assay in EOL1 Cells
EoL-1 eosinophilic leukemia cells were seeded on day 1 at a density of 45,000 cells per well in Corning PureCoat Amine Microplates, (Corning #354719) in 45 μL/well of assay media (RPMI, 10% FBS, containing L-glutamine). After cells attached to cell plate, compounds were serially diluted ⅓ in dimethylsulfoxide (DMSO) to create 20-point dilutions across a 384 well v-bottom polypropylene microplate (Greiner #781091). 2 μL of each sample from the serial dilution was transferred to 98 μL of assay media as an intermediate dilution. 5 μL of each well of the intermediate dilution was added to 45 μL of cell plate. Columns 1, 2, 23 and 24 were treated with only 0.2% final concentration of DMSO for data normalization as “neutral controls”. After compound treatment, cell plates were stored in a 37° C. incubator for 4 hours. After 4 hours cells were fixed in 3.7% w/v final concentration of paraformaldehyde by addition of 15 μL of 16% w/v paraformaldehyde (Electron Microscopy Sciences #15710-S) directly to the 50 μL media and compound in the cell plate. Cell plate was incubated at RT for 20 minutes. Well contents were aspirated and washed with 100 μL/well PBS 3 times. 50 ul/well of phosphate Buffered Saline (PBS) (pH 7.5) containing 0.5% w/v bovine serum albumen, 0.5% w/v Triton X-100 (Block/Permeabilization Buffer) was added to each well. Samples were incubated for 20 minutes. Well contents were aspirated and washed 3 times with 100 μL/well of PBS. PBS was aspirated from the well and 50 μL per well of EoL-1 Block Buffer (PBS containing 10% Normal Goat Serum (AbCam #ab7481)) was added to each well. Plates were incubated at room temperature for 30 minutes. Block buffer was decanted from the wells. Immunofluorescence staining of BRD4 was carried out by diluting mAB Anti-BRD4 [EPR5150] antibody (Abcam 128874) 1:500 into Antibody Dilution Buffer (PBS, 2% Normal Goat Serum). 25 μL per well of BRD4 antibody diluted in buffer was added and incubated overnight at 4° C.
On day-2 samples were washed 3 times with 100 μL/well of PBS. 25 μL/well of secondary antibody solution (Goat Anti-Rabbit IgG, DyLight 488 Conjugated Highly Cross-adsorbed Thermo Fisher #35553) and Hoechst 33342 1 μg/ml diluted in Antibody Dilution Buffer) were dispensed into each well. Hoechst 33342 only was added to bottom 3 columns for data normalization as “inhibitor controls”. Samples were incubated for 2 hours at room temperature. Samples were washed 3 times with 100 μL PBS. Quantitative fluorescence imaging of BRD4 was carried out using an Opera Phenix High-Content Screening System. Fluorescent images of the samples were captured using 488 nm and 405 nm channels. Hoechst channel was used to identify nuclear region. Mean 488 intensity of BRD4 quantitated in nuclear region. Data analysis was carried out using Genedata Screener, with DMSO and no primary antibody control treated samples being used to define the 0% and 100% changes in BRD4. The dose-response log(inhibitor) vs. response used to define the inflexion point of curve (DC50) and the plateau of the maximal effect.
The individual topological polar surface area (TPSA) and cLogP values were calculated using Chemdraw v. 15.1 (PerkinElmer). Half life of the ternary VHL/BD1 and VHL/BD2 complexes, DC50 of BRD4 in EOL1 cells, topological polar surface area of a molecule (TPSA) and c log P (lipophilicity) for compounds described herein are provided in Table 3.

Question: For Cc1sc2c(c1C)C(c1ccc(Cl)cc1)=N[C@@H](CC(=O)NC[C@H]1NC(=O)CNC(=O)[C@H](Cc3ccc(-c4ccccc4)cc3)NC(=O)[C@@H]3C[C@@H](O)CN3C(=O)[C@H](C(C)(C)C)NC(=O)CSC[C@H](C(N)=O)NC1=O)c1nnc(C)n1-2 [Compound 19] ({CH2CO}-[Tle][Hyp][Bip]G[dDap](JQ1acid)[dC]-NH2; thioether N-6), which DC50 is on record?
Answer: The DC50 was less than 20 µM.

Question: How did the DC50 turn out when Cc1sc2c(c1C)C(c1ccc(Cl)cc1)=N[C@@H](CC(=O)NC[C@H]1NC(=O)CNC(=O)[C@H](Cc3ccc(Br)s3)NC(=O)[C@@H]3C[C@@H](O)CN3C(=O)[C@H](C(C)(C)C)NC(=O)CSC[C@H](C(N)=O)NC1=O)c1nnc(C)n1-2 [Compound 20] ({CH2CO}-[Tle][Hyp][X7]G[dDap](JQ1acid)[dC]-NH2; thioether N-6) was run?
Answer: The DC50 was less than 1 µM.

Question: CC(=O)N1c2ccc(-c3ccc(C(=O)NC[C@H]4NC(=O)CNC(=O)[C@@H](c5ccc(-c6scnc6C)cc5)NC(=O)[C@@H]5C[C@@H](O)CN5C(=O)[C@H](C(C)(C)C)NC(=O)CSC[C@H](C(N)=O)NC4=O)cc3)cc2[C@H](Nc2ccc(Cl)cc2)C[C@@H]1C [Compound 21] ({CH2CO}-[Tle][Hyp][dPhg(4-(4-Me-thiazol-5-yl))]G[dDap](X11)[dC]-NH2; thioether N-6) was tested. Which DC50 did it give?
Answer: Its DC50 is greater than 20 µM.

Question: Which DC50 does the source give for Cc1ncsc1-c1ccc([C@H]2NC(=O)[C@@H]3C[C@@H](O)CN3C(=O)[C@H](C(C)(C)C)NC(=O)CSC[C@H](C(N)=O)NC(=O)[C@@H](CNC(=O)c3cc4c(cc3CS(C)(=O)=O)-c3cn(C)c(=O)c5[nH]cc(c35)CN4c3ncc(F)cc3F)NC(=O)CNC2=O)cc1 [Compound 22] ({CH2CO}-[Tle][Hyp][dPhg(4-(4-Me-thiazol-5-yl))]G[dDap](X14)[dC]-NH2; thioether N-6) here?
Answer: Its DC50 is greater than 20 µM.

Question: For Cc1sc2c(c1C)C(c1ccc(Cl)cc1)=N[C@@H](CC(=O)NC[C@H]1NC(=O)CNC(=O)[C@@H](Cc3ccc(Br)s3)NC(=O)[C@@H]3C[C@@H](O)CN3C(=O)[C@H](C(C)(C)C)NC(=O)CSC[C@H](C(N)=O)NC1=O)c1nnc(C)n1-2 [Compound 23] ({CH2CO}-[Tle][Hyp][X5]G[dDap](JQ1acid)[dC]-NH2; thioether N-6), which DC50 is on record?
Answer: Its DC50 is less than 1 µM.

Question: How did the DC50 turn out when COc1ccc(C[C@@H]2NC(=O)[C@@H]3C[C@@H](O)CN3C(=O)[C@H](C(C)(C)C)NC(=O)CSC[C@H](C(N)=O)NC(=O)[C@@H](CNC(=O)C[C@@H]3N=C(c4ccc(Cl)cc4)c4c(sc(C)c4C)-n4c(C)nnc43)NC(=O)CNC2=O)cc1 [Compound 24] ({CH2CO}-[Tle][Hyp]Y(Me)G[dDap](JQ1acid)[dC]-NH2; thioether N-6) was run?
Answer: The DC50 was greater than 20 µM.

Question: With Cc1ncsc1-c1ccc([C@H]2NC(=O)[C@@H]3C[C@@H](O)CN3C(=O)[C@H](C(C)(C)C)NC(=O)CSC[C@H](C(N)=O)NC(=O)[C@H]3CN(C(=O)C[C@@H]4N=C(c5ccc(Cl)cc5)c5c(sc(C)c5C)-n5c(C)nnc54)CCN3C(=O)CNC2=O)cc1 [Compound 25] ({CH2CO}-[Tle][Hyp][dPhg(4-(4-Me-thiazol-5-yl))]G[X4](JQ1acid)[dC]-NH2; thioether N-6) as the molecule, how does the DC50 read?
Answer: The DC50 was less than 20 µM.

Question: With Cc1ncsc1-c1ccc([C@H]2NC(=O)[C@@H]3C[C@@H](O)CN3C(=O)[C@H](C(C)(C)C)NC(=O)CSC[C@H](C(N)=O)NC(=O)[C@@H](CNC(=O)C[C@@H]3N=C(c4ccc(Cl)cc4)c4c(sc(C)c4C)-n4c(C)nnc43)NC(=O)[C@@H](C)NC2=O)cc1 [Compound 26] ({CH2CO}-[Tle][Hyp][dPhg(4-(4-Me-thiazol-5-yl))][dA][dDap](JQ1acid)[dC]-NH2; thioether N-6) as the molecule, how does the DC50 read?
Answer: Its DC50 is less than 1 µM.

Question: Cc1ncsc1-c1ccc([C@H]2NC(=O)[C@@H]3C[C@H](O)CN3C(=O)[C@H](C(C)(C)C)NC(=O)CSC[C@H](C(N)=O)NC(=O)[C@@H](CNC(=O)C[C@@H]3N=C(c4ccc(Cl)cc4)c4c(sc(C)c4C)-n4c(C)nnc43)NC(=O)CNC2=O)cc1 [Compound 27] ({CH2CO}-[Tle][cisHyp][dPhg(4-(4-Me-thiazol-5-yl))]G[dDap](JQ1acid)[dC]-NH2; thioether N-6) was tested. Which DC50 did it give?
Answer: Its DC50 is greater than 20 µM.

Question: With Cc1ncsc1-c1ccc([C@H]2NC(=O)[C@@H]3C[C@@H](O)CN3C(=O)[C@H](C(C)(C)C)NC(=O)CSC[C@@H](C(N)=O)NC(=O)[C@@H](CNC(=O)C[C@@H]3N=C(c4ccc(Cl)cc4)c4c(sc(C)c4C)-n4c(C)nnc43)NC(=O)CNC2=O)cc1 [Compound 28] ({CH2CO}-[Tle][Hyp][dPhg(4-(4-Me-thiazol-5-yl))]G[dDap](JQ1acid)C-NH2; thioether N-6) as the molecule, how does the DC50 read?
Answer: The DC50 was greater than 20 µM.

Question: How did the DC50 turn out when Cc1ncsc1-c1ccc([C@H]2NC(=O)[C@@H]3C[C@@H](O)CN3C(=O)[C@H](C(C)(C)C)NC(=O)CSC[C@H](C(N)=O)NC(=O)[C@@H](CN(C)C(=O)C[C@@H]3N=C(c4ccc(Cl)cc4)c4c(sc(C)c4C)-n4c(C)nnc43)NC(=O)CNC2=O)cc1 [Compound 29] ({CH2CO}-[Tle][Hyp][dPhg(4-(4-Me-thiazol-5-yl))]G[dDap(Me)](JQ1acid)[dC]-NH2; thioether N-6) was run?
Answer: The DC50 was less than 20 µM.

Question: How did the DC50 turn out when Cc1ncsc1-c1ccc([C@@H]2NC(=O)[C@@H]3C[C@@H](O)CN3C(=O)[C@H](C(C)(C)C)NC(=O)CSC[C@H](C(N)=O)NC(=O)[C@@H](CNC(=O)C[C@@H]3N=C(c4ccc(Cl)cc4)c4c(sc(C)c4C)-n4c(C)nnc43)NC(=O)[C@@H](C)NC2=O)cc1 [Compound 31] ({CH2CO}-[Tle][Hyp][Phg(4-(4-Me-thiazol-5-yl))][dA][dDap](JQ1acid)[dC]-NH2; thioether N-6) was run?
Answer: The DC50 was greater than 20 µM.

Question: Which DC50 does the source give for Cc1ncsc1-c1ccc([C@H]2NC(=O)[C@@H]3C[C@@H](O)CN3C(=O)[C@H](C(C)(C)C)NC(=O)CCOCCNC(=O)[C@@H](CNC(=O)C[C@@H]3N=C(c4ccc(Cl)cc4)c4c(sc(C)c4C)-n4c(C)nnc43)NC(=O)CNC2=O)cc1 [Compound 32] (cyclo(G[dDap](JQ1acid)[PEG1][Tle][Hyp][dPhg(4-(4-Me-thiazol-5-yl))])) here?
Answer: The DC50 was greater than 20 µM.

Question: Which DC50 does the source give for Cc1ncsc1-c1ccc([C@H]2NC(=O)[C@@H]3C[C@@H](O)CN3C(=O)[C@H](C(C)(C)C)NC(=O)CNC(=O)[C@H](C)NC(=O)[C@@H](CNC(=O)C[C@@H]3N=C(c4ccc(Cl)cc4)c4c(sc(C)c4C)-n4c(C)nnc43)NC(=O)CNC2=O)cc1 [Compound 33] (cyclo(AG[Tle][Hyp][dPhg(4-(4-Me-thiazol-5-yl))]G[dDap](JQ1acid))) here?
Answer: The DC50 was less than 1 µM.

Question: With Cc1ncsc1-c1ccc([C@@H]2NC(=O)[C@@H]3C[C@@H](O)CN3C(=O)[C@H](C(C)(C)C)NC(=O)COCCNC(=O)[C@@H](CNC(=O)C[C@@H]3N=C(c4ccc(Cl)cc4)c4c(sc(C)c4C)-n4c(C)nnc43)NC(=O)[C@H](C)NC2=O)cc1 [Compound 35] (cyclo(A[dDap](JQ1acid)[AEA][Tle][Hyp][Phg(4-(4-Me-thiazol-5-yl))])) as the molecule, how does the DC50 read?
Answer: The DC50 was greater than 20 µM.

Question: Cc1ncsc1-c1ccc([C@H]2NC(=O)[C@@H]3C[C@@H](O)CN3C(=O)[C@H](C(C)(C)C)NC(=O)CNC(=O)C[C@@H](CCCCNC(=O)C[C@@H]3N=C(c4ccc(Cl)cc4)c4c(sc(C)c4C)-n4c(C)nnc43)NC(=O)CNC2=O)cc1 [Compound 36] (cyclo(G[Tle][Hyp][dPhg(4-(4-Me-thiazol-5-yl))]G[d(β3hK)](JQ1acid))) was tested. Which DC50 did it give?
Answer: Its DC50 is greater than 20 µM.

Question: With Cc1ncsc1-c1ccc([C@@H]2NC(=O)[C@@H]3C[C@@H](O)CN3C(=O)[C@H](C(C)(C)C)NC(=O)CNC(=O)C[C@@H](CCCCNC(=O)C[C@@H]3N=C(c4ccc(Cl)cc4)c4c(sc(C)c4C)-n4c(C)nnc43)NC(=O)CNC2=O)cc1 [Compound 37] (cyclo(G[Tle][Hyp][Phg(4-(4-Me-thiazol-5-yl))]G[d(β3hK)](JQ1acid))) as the molecule, how does the DC50 read?
Answer: The DC50 was greater than 20 µM.
